Like-named read-outs stand apart in the source and are kept apart here.
Columns and labels:
[1] = test system: transformants of Arabidopsis to which a gene encoding gFBA was introduced and wild-type Arabidopsis (Columbia; Col); conditions: in vivo
Arabidopsis [2] = test: Influence 1 of treatment condition on seeds of Arabidopsis (concentration and duration from sowing); assay type: in vivo
Method: Seeds of Arabidopsis were sown in pods filled with soil immersed in 0 mM-, 0.01 mM-, 0.2 mM-, 1 mM-, 2 mM-, and 5 mM-GSSG.
(§1) Arabidopsis was cultivated under the same conditions as those described in <1. Influence of oxidized glutathione on growth of Arabidopsis> except for the above condition.
The seed weight per one pod, obtained from Arabidopsis thus cultivated (three plants in each pod), was measured. The results of the measurement are shown in FIGS. 10-12. n is the number of plants that can be finally harvested.

Arabidopsis [3] = test: Influence 4 of treatment condition on seeds of Arabidopsis (two weeks of 1 mM-GSSG); assay type: in vivo; conditions: 1 mM-GSSG only for two weeks in a specific growth period
Method: Seeds of Arabidopsis were sown in pods filled with soil immersed in water. The pods were transferred to trays filled with water containing 1 mM-GSSG and cultivated there only for two weeks that are the first and second weeks (0th-14th day), the second and third weeks (8th-21st day), the third and fourth weeks (15th-28th day), the fourth and fifth weeks (22nd-35th day), the fifth and sixth weeks (29th-42nd day), or the sixth and seventh weeks (36th-49th day) after the sowing. That is, Arabidopsis were treated with 1 mM-GSSG only for two weeks in a specific growth period.
as §1
The seed weight per one pod, obtained from Arabidopsis thus cultivated (three plants in each pod), was measured.

[4] = test system: Roses (breed; Patiohit alicante); test: Effect 1 on promotion of induction of floral bud of rose; assay type: in vivo; conditions: 50 mL of 0.5 mM-GSSG two times a week; approximately three and a half months
Method: Roses (breed; Patiohit alicante) were purchased at a hardware store and fertilized with 50 mL of a 0.5 mM-GSSG solution in the form of a liquid fertilizer two times a week. Approximately three and a half months later, plants in a GSSG-treated zone and plants in a non-GSSG-treated zone were compared with each other.

Sweet corn [5] = conditions: in vivo
[6] = test system: Rose (breed; English rose); test: Influence of oxidized glutathione on growth of rose (English rose); assay type: in vivo; conditions: 50 mL of 0.5 mM-GSSG two times a week for four months, then pruned
Method: Rose (breed; English rose) was fertilized with 50 mL of a 0.5 mM-GSSG solution two times a week for four months and then pruned completely and cultivated.

Arabidopsis [7] = test: Influence 5 of treatment condition on Arabidopsis: seed weight, dry weight, harvest index; assay type: in vivo
Method: Seeds of Arabidopsis were sown in pods filled with soil immersed in water. The pods were transferred to trays filled with water containing 0.2 mM-GSSG or 1 mM-GSSG and cultivated there only for two weeks that were the first and second weeks (0th-14th day), the third and fourth weeks (15th-28th day), the fifth and sixth weeks (29th-42nd day), or the seventh and eighth weeks (43rd-56th day) after the sowing. That is, Arabidopsis were treated with 0.2 mM-GSSG or 1 mM-GSSG only for two weeks in a specific growth period.
as §1
The seed weight, dry weight, and harvest index of Arabidopsis thus cultivated (three plants in each pod) were measured and an average of three pods was calculated.

[8] = test system: Arabidopsis GA synthesis mutants ga20ox1; test: Effect of oxidized glutathione on gibberellin synthesis mutant; assay type: in vivo; conditions: GSSG (1 mM) from sowing
Text: In the drawing, “Col” indicates a wild-type Columbia, and “ga20ox1” indicates a mutant in which T-DNA is inserted into a GA20 oxidase gene that codes an enzyme of a GA biosynthesis. “ga20ox1-1” and “ga20ox1-2” are independent mutants in which T-DNA are inserted into different portions.

Sweet corn [9] = test: Effect 3 of oxidized glutathione on productivity of corn (foliar spray); assay type: in vivo; conditions: GSSG sprayed to a stem and leaves four times in two weeks after six weeks from the sowing
Method: (§2) Sweet corn was cultivated under the same conditions as those of <15.
The amount of fruits and the amount of biomass of ground parts of the plant thus obtained were measured with respect to each plant and harvest index was calculated.

[10] = test system: Rose saplings (breed; Purple rose); test: Effect 1 on promoting growth of sprout and floral bud of rose (Purple rose); assay type: in vivo; conditions: 50 mL of 0.5 mM-GSSG two times a week; one month from the fertilization
Method: Rose saplings (breed; Purple rose) were purchased at a hardware store and cultivated in pods for rice hydroponics. The rose saplings were fertilized with 50 mL of a 0.5 mM-GSSG solution in the form of a liquid fertilizer two times a week.

eustoma = test: Effect on promoting growth of roots of eustoma; assay type: in vivo; conditions: MS culture medium containing 1 mM-GSSG or GSH, grown 1 month, transferred to planter
Text: In the planter, 2 parts of vermiculite, 1 part of The Kureha Ikubyou Baido soil, and 1 part of vermiculite were layered as a lower layer, a middle layer, and an upper layer, respectively, and the above plants were transferred thereto.

rice (Akita 63) = test: Rice hydroponics, GSSG in additional fertilization, number of ears; assay type: in vivo; conditions: GSSG 0.2 gN per test location (0.1 m2) in additional fertilization
Text: In particular, the method is effective for a plant such as gramineae whose yield is greatly dependent on tillers.

Arabidopsis [11] = test: Influence of oxidized glutathione on growth of Arabidopsis; assay type: in vivo; conditions: in vivo
Method: Specifically, the plants were cultivated with two or three plants in one pod of approximately 65 in width, 65 in depth, and 50 in height, and an appropriate amount of a treatment solution was supplied. The effect of the treatment was evaluated with respect to the number of rosette leaves, the speed of a growing flower stalk, the number of flowers, and the number of seeds.

[12] = test system: Rose saplings (breed; JJ scarlet and JJ apricot); test: Effect 2 on promoting growth of sprout and floral bud of rose (JJ scarlet and JJ apricot); assay type: in vivo; conditions: 50 mL of 0.5 mM-GSSG two times a week; fourth and eighth day from the fertilization
Method: Rose saplings (breed; JJ scarlet and JJ apricot) were purchased at a hardware store and cultivated in pods for rice hydroponics. The rose saplings were fertilized with 50 mL of a 0.5 mM-GSSG solution in the form of a liquid fertilizer two times a week.
In (a)-(d) of FIG. 35, the breeds of three plants are JJ scarlet, JJ apricot, and JJ scarlet, respectively from the left.

Sweet corn [13] = test: Effect 4 of oxidized glutathione on productivity of corn (method and time of treatment); assay type: in vivo; conditions: 20 mL of 0.2 mM-GSSG each time, to roots or sprayed to stem and leaves; any of the treatment times
Method: as §2
Harvest index of the plant thus obtained was measured.

## oxidized glutathione [GSSG]
[1]
  ability to increase harvest index and crop yields, oxidized vs reduced glutathione: higher ability to increase the harvest index and to significantly increase crop yields than reduced glutathione
Arabidopsis [2]; supplying GSSG for a long time
  seed weight per pod: effective concentration: GSSG with low concentration is more effective than GSSG with high concentration
Arabidopsis [2]; supplying GSSG for a short time
  seed weight per pod: effective concentration: GSSG with high concentration is more desirable
Arabidopsis [3]
  seed weight per one pod vs not treated: significantly increased the seed weight
[4]
  number of bloomed flowers vs not treated: greatly larger number of bloomed flowers
Sweet corn [5]
  amount of biomass of fruits per plant vs not treated: higher amount of biomass of fruits
  amount of biomass of ground parts vs not treated: substantially the same or lower amount of biomass of ground parts
  amount of biomass of the portions other than fruits vs not treated: lower amount of biomass of the portions other than fruits
  amounts of biomass of the portions other than fruits and ground parts vs not treated: greatly lower amounts of biomass of the portions other than fruits and ground parts
  harvest index vs not treated: higher harvest index
  whole amount of biomass per area vs not treated: did not exhibit a significant difference
[6]
  germination and growth of new buds vs not treated: significantly earlier germination and significant promotion of growth of new buds
Arabidopsis [7]; 0.2 mM-GSSG
  dry weight vs not treated: increased little
  harvest index vs not treated: increased
  seed weight vs not treated: increased
Arabidopsis [7]; 1 mM-GSSG
  dry weight vs not treated: evidently increased
  seed weight vs not treated: evidently increased
Arabidopsis [7]; 1 mM-GSSG, except when treated 1 or 2 weeks after the sowing
  harvest index vs not treated: evidently increased
[8]
  seed weight: significantly increased
[8]; 8 weeks after the sowing
  number of flowers (sheaths): also increased
  number of lateral shoots vs water: significantly increased
Sweet corn [9]
  amount of fruits, amount of biomass of ground parts and harvest index of each plant: increased the amount of fruits, the amount of biomass of ground parts, and the harvest index
[10]
  growth of sprout vs not treated: promoted growth of sprout
eustoma
  growth of roots vs plants not treated with GSSG: significant growth of roots
Rice (Akita 63)
  number of ears relative to plant cultivated with only water: approximately 1.4 times
Arabidopsis [11]
  effective number of seeds per plant relative to plants cultivated with only water or 5 mM H2O2: approximately three or four times as large
  growth of leaves (size and shape): grew larger and rounder
  number of flowers and area of leaves: greatly larger
  plant length, stem and leaves: shorter plant length, a thicker stem, and larger leaves
  state of plant (life of plant): showed much amount of green leaves
[12]
  growth of sprout vs not treated: promoted growth of sprout
Sweet corn [13]
  harvest index vs not treated: significantly increased

Reference: US9532519B2, “Plant growth regulator and use thereof” (Japan Science and Technology Agency, priority 2006, dated 2017)
